Assay results taken from patent US20230014151A1, “COMBINATION ANTIVIRAL THERAPY FOR MEASLES” (The Trustees of Columbia University in the City of New York, priority 2019, published 2023).
Read-outs that look alike come from different tables or passages of the source. Numbered stars: 1 amine (or outer) side, 2 acyl side, 3 side chain; on linkers, the order of the positions; unused ones are H or OH. Bridge positions count the residues as written; N and C are the ends. Square brackets hold non-standard residues; d marks the D form. Peptide text beside a SMILES is read from it. I, II: the chains in the order shown. * marks the point of attachment. X1 = CC(C)CCC[C@@H](C)[C@H]1CC[C@H]2[C@@H]3CC=C4C[C@@H](OCCN(CCNC(=O)CCOCCOCCOCCOCCNC(=O)CCCN5C(=O)CC([*:1])C5=O)CCNC(=O)CCOCCOCCOCCOCCNC(=O)CCCN5C(=O)CC([*:2])C5=O)CC[C@]4(C)[C@H]3CC[C@]12C; Succinimide(1-Et,3-yl) = CCN1C(=O)CC(*)C1=O; Cbz = O=C(OCc1ccccc1)*

Key:
[1] = biological target: viral glycoproteins (H and F); CD150; test: beta-galactosidase complementation-based fusion assay, CD150 target cells; conditions: for IC90: read-out: CD150 IC90
[2] = biological target: viral glycoproteins (H and F); Nectin-4 (Measles virus, UniProt Q786F3); test: beta-galactosidase complementation-based fusion assay, Nectin-4 target cells
[3] = biological target: measles virus (MeV) fusion protein F, wild type, expressed on cells (measles virus) (UniProt Q786F3); test: cell-based or functional assay
[4] = Nectin4 IC50, Table 3 (extended version)
[5] = IC50, Table 2 (salient peptides), Nectin-4 target cells

Compound | IC50 [1] | IC90 [1] | IC50 [2] | IC90 ([2]; read-out: Nectin4 IC90) | IC50 [2, 4] | IC90 [2] | IC50 [2, 5] | IC50, beta-galactosidase complementation-based fusion assay, Nectin-4 target cells [3] | IC90, beta-galactosidase complementation-based fusion assay, Nectin-4 target cells [3]
CC[C@H](C)[C@H](NC(=O)[C@H](C)NC(=O)[C@H](CC(N)=O)NC(=O)CNC(=O)[C@H](CC(C)C)NC(=O)[C@H](CC(N)=O)NC(=O)[C@@H](NC(=O)CNC(=O)[C@@H](NC(=O)[C@H](CC(=O)O)NC(=O)[C@H](CC(C)C)NC(=O)[C@H](CCCNC(=N)N)NC(=O)[C@H](CCC(=O)O)NC(=O)[C@H](CC(C)C)NC(=O)[C@H](CO)NC(=O)[C@@H](NC(=O)[C@@H]1CCCN1C(=O)[C@@H]1CCCN1C(=O)CNC(=O)[C@H](CO)NC(=O)CNC(=O)[C@H](CO)NC(=O)CNC(=O)CNC(=O)[C@H](Cc1ccccc1)NC(=O)[C@@H](Cc1ccccc1)NC(=O)OCc1ccccc1)[C@@H](C)CC)C(C)C)[C@@H](C)O)C(=O)N[C@@H](C)C(=O)N[C@@H](CCCCN)C(=O)N[C@@H](CC(C)C)C(=O)N[C@@H](CCC(=O)O)C(=O)N[C@@H](CC(=O)O)C(=O)N[C@@H](C)C(=O)N[C@@H](CCCCN)C(=O)N[C@@H](CCC(=O)O)C(=O)N[C@@H](CC(C)C)C(=O)N[C@@H](CC(C)C)C(=O)N[C@@H](CCC(=O)O)C(=O)N[C@@H](CO)C(=O)N[C@@H](CO)C(=O)N[C@@H](CC(=O)O)C(=O)N[C@@H](CCC(N)=O)C(=O)N[C@H](C(=O)N[C@@H](CC(C)C)C(=O)N[C@@H](CCCNC(=N)N)C(=O)N[C@@H](CSC1CC(=O)N(CCCC(=O)NCCOCCOCCOCCOCCC(=O)NCCN(CCNC(=O)CCOCCOCCOCCOCCNC(=O)CCCN2C(=O)CC(SC[C@H](NC(=O)[C@H](CCCNC(=N)N)NC(=O)[C@H](CC(C)C)NC(=O)[C@@H](NC(=O)[C@H](CCC(N)=O)NC(=O)[C@H](CC(=O)O)NC(=O)[C@H](CO)NC(=O)[C@H](CO)NC(=O)[C@H](CCC(=O)O)NC(=O)[C@H](CC(C)C)NC(=O)[C@H](CC(C)C)NC(=O)[C@H](CCC(=O)O)NC(=O)[C@H](CCCCN)NC(=O)[C@H](C)NC(=O)[C@H](CC(=O)O)NC(=O)[C@H](CCC(=O)O)NC(=O)[C@H](CC(C)C)NC(=O)[C@H](CCCCN)NC(=O)[C@H](C)NC(=O)[C@@H](NC(=O)[C@H](C)NC(=O)[C@H](CC(N)=O)NC(=O)CNC(=O)[C@H](CC(C)C)NC(=O)[C@H](CC(N)=O)NC(=O)[C@@H](NC(=O)CNC(=O)[C@@H](NC(=O)[C@H](CC(=O)O)NC(=O)[C@H](CC(C)C)NC(=O)[C@H](CCCNC(=N)N)NC(=O)[C@H](CCC(=O)O)NC(=O)[C@H](CC(C)C)NC(=O)[C@H](CO)NC(=O)[C@@H](NC(=O)[C@@H]3CCCN3C(=O)[C@@H]3CCCN3C(=O)CNC(=O)[C@H](CO)NC(=O)CNC(=O)[C@H](CO)NC(=O)CNC(=O)CNC(=O)[C@H](Cc3ccccc3)NC(=O)[C@@H](Cc3ccccc3)NC(=O)OCc3ccccc3)[C@@H](C)CC)C(C)C)[C@@H](C)O)[C@@H](C)CC)[C@@H](C)CC)C(=O)O)C2=O)CCO[C@H]2CC[C@@]3(C)C(=CC[C@H]4[C@@H]5CC[C@H]([C@H](C)CCCC(C)C)[C@@]5(C)CC[C@@H]43)C2)C1=O)C(=O)O)[C@@H](C)CC (some centres unmarked) | 58.9 ± 69.8 nM | 287 ± 24.5 nM | 60.2 ± 65.5 nM | 220 ± 189 nM |  |  |  |  | 
CC(C)CCC[C@@H](C)[C@H]1CC[C@H]2[C@@H]3CC=C4C[C@@H](OC(=O)CSC[C@H](NC(=O)CNC(=O)[C@H](Cc5ccccc5)NC(=O)[C@@H](Cc5ccccc5)NC(=O)OCc5ccccc5)C(=O)O)CC[C@]4(C)[C@H]3CC[C@]12C [FIP-chol (no GSGSG)] | > 1000 nM | > 1000 nM |  | > 1000 nM | > 1000 nM |  |  |  | 
CC(C)CCC[C@@H](C)[C@H]1CC[C@H]2[C@@H]3CC=C4C[C@@H](OC(=O)CCOCCOCCOCCOCCNC(=O)CSC[C@H](NC(=O)CNC(=O)[C@H](Cc5ccccc5)NC(=O)[C@@H](Cc5ccccc5)NC(=O)OCc5ccccc5)C(=O)O)CC[C@]4(C)[C@H]3CC[C@]12C [FIP-peg4-chol (no GSGSG)] |  | > 900 nM |  | > 1000 nM |  |  |  |  | 
CCN1C(=O)CC(SC[C@H](NC(=O)CNC(=O)[C@H](Cc2ccccc2)NC(=O)[C@@H](Cc2ccccc2)NC(=O)OCc2ccccc2)C(=O)O)C1=O (some centres unmarked) [Monomer N-Maleimide FIP (no GSGSG)] (Cbz-[dF]FGC(Succinimide(1-Et,3-yl))-OH) |  | > 1000 nM |  | > 1000 nM |  |  |  |  | 
CC[C@H](C)[C@H](NC(=O)[C@H](C)NC(=O)[C@H](CC(N)=O)NC(=O)CNC(=O)[C@H](CC(C)C)NC(=O)[C@H](CC(N)=O)NC(=O)[C@@H](NC(=O)CNC(=O)[C@@H](NC(=O)[C@H](CC(=O)O)NC(=O)[C@H](CC(C)C)NC(=O)[C@H](CCCNC(=N)N)NC(=O)[C@H](CCC(=O)O)NC(=O)[C@H](CC(C)C)NC(=O)[C@H](CO)NC(=O)[C@@H](NC(=O)[C@@H]1CCCN1C(=O)[C@@H]1CCCN1C(=O)CNC(=O)[C@H](CO)NC(=O)CNC(=O)[C@H](CO)NC(=O)CNC(=O)CNC(=O)[C@H](Cc1ccccc1)NC(=O)[C@@H](Cc1ccccc1)NC(=O)OCc1ccccc1)[C@@H](C)CC)C(C)C)[C@@H](C)O)C(=O)N[C@@H](C)C(=O)N[C@@H](CCCCN)C(=O)N[C@@H](CC(C)C)C(=O)N[C@@H](CCC(=O)O)C(=O)N[C@@H](CC(=O)O)C(=O)N[C@@H](C)C(=O)N[C@@H](CCCCN)C(=O)N[C@@H](CCC(=O)O)C(=O)N[C@@H](CC(C)C)C(=O)N[C@@H](CC(C)C)C(=O)N[C@@H](CCC(=O)O)C(=O)N[C@@H](CO)C(=O)N[C@@H](CO)C(=O)N[C@@H](CC(=O)O)C(=O)N[C@@H](CCC(N)=O)C(=O)N[C@H](C(=O)N[C@@H](CC(C)C)C(=O)N[C@@H](CCCNC(=N)N)C(=O)N[C@@H](CSC1CC(=O)N(CCC(=O)NCCOCCOCCOCCOCCOCCOCCOCCOCCOCCOCCOCCNC(=O)CCN2C(=O)CC(SC[C@H](NC(=O)[C@H](CCCNC(=N)N)NC(=O)[C@H](CC(C)C)NC(=O)[C@@H](NC(=O)[C@H](CCC(N)=O)NC(=O)[C@H](CC(=O)O)NC(=O)[C@H](CO)NC(=O)[C@H](CO)NC(=O)[C@H](CCC(=O)O)NC(=O)[C@H](CC(C)C)NC(=O)[C@H](CC(C)C)NC(=O)[C@H](CCC(=O)O)NC(=O)[C@H](CCCCN)NC(=O)[C@H](C)NC(=O)[C@H](CC(=O)O)NC(=O)[C@H](CCC(=O)O)NC(=O)[C@H](CC(C)C)NC(=O)[C@H](CCCCN)NC(=O)[C@H](C)NC(=O)[C@@H](NC(=O)[C@H](C)NC(=O)[C@H](CC(N)=O)NC(=O)CNC(=O)[C@H](CC(C)C)NC(=O)[C@H](CC(N)=O)NC(=O)[C@@H](NC(=O)CNC(=O)[C@@H](NC(=O)[C@H](CC(=O)O)NC(=O)[C@H](CC(C)C)NC(=O)[C@H](CCCNC(=N)N)NC(=O)[C@H](CCC(=O)O)NC(=O)[C@H](CC(C)C)NC(=O)[C@H](CO)NC(=O)[C@@H](NC(=O)[C@@H]3CCCN3C(=O)[C@@H]3CCCN3C(=O)CNC(=O)[C@H](CO)NC(=O)CNC(=O)[C@H](CO)NC(=O)CNC(=O)CNC(=O)[C@H](Cc3ccccc3)NC(=O)[C@@H](Cc3ccccc3)NC(=O)OCc3ccccc3)[C@@H](C)CC)C(C)C)[C@@H](C)O)[C@@H](C)CC)[C@@H](C)CC)C(=O)O)C2=O)C1=O)C(=O)O)[C@@H](C)CC (some centres unmarked) [[FIP-HRC450-485]2-peg11 (no GSGSG)] |  | > 1000 nM |  | > 1000 nM |  |  |  |  | 
CC(C)CCC[C@@H](C)[C@H]1CC[C@H]2[C@@H]3CC=C4C[C@@H](OCCN(CCNC(=O)CCOCCOCCOCCOCCNC(=O)CCCN5C(=O)CC(SC[C@H](NC(=O)CNC(=O)[C@H](Cc6ccccc6)NC(=O)[C@@H](Cc6ccccc6)NC(=O)OCc6ccccc6)C(=O)O)C5=O)CCNC(=O)CCOCCOCCOCCOCCNC(=O)CCCN5C(=O)CC(SC[C@H](NC(=O)CNC(=O)[C@H](Cc6ccccc6)NC(=O)[C@@H](Cc6ccccc6)NC(=O)OCc6ccccc6)C(=O)O)C5=O)CC[C@]4(C)[C@H]3CC[C@]12C (some centres unmarked) [[FIP-peg4]2-chol (no GSGSG)] | > 700 nM | > 1000 nM |  | > 1000 nM | > 1000 nM |  |  |  | 
CC(C)CCC[C@@H](C)[C@H]1CC[C@H]2[C@@H]3CC=C4C[C@@H](OCCN(CCNC(=O)CCOCCOCCOCCOCCNC(=O)CCCN5C(=O)CC(SC[C@H](NC(=O)CNC(=O)[C@H](CO)NC(=O)CNC(=O)[C@H](CO)NC(=O)CNC(=O)CNC(=O)[C@H](Cc6ccccc6)NC(=O)[C@@H](Cc6ccccc6)NC(=O)OCc6ccccc6)C(=O)O)C5=O)CCNC(=O)CCOCCOCCOCCOCCNC(=O)CCCN5C(=O)CC(SC[C@H](NC(=O)CNC(=O)[C@H](CO)NC(=O)CNC(=O)[C@H](CO)NC(=O)CNC(=O)CNC(=O)[C@H](Cc6ccccc6)NC(=O)[C@@H](Cc6ccccc6)NC(=O)OCc6ccccc6)C(=O)O)C5=O)CC[C@]4(C)[C@H]3CC[C@]12C (some centres unmarked) [[FIP-peg4]2-chol] (I: Cbz-[dF]FGGSGSGC-OH / II: Cbz-[dF]FGGSGSGC-OH; linker I:9-II:9 via X1) | 510 ± 360 nM | 927 ± 359 nM |  | 1845 ± 16 nM |  | 1845 ± 16 nM | 452 ± 196 nM |  | 
O=C(CCN1C(=O)CC(SC[C@H](NC(=O)CNC(=O)[C@H](Cc2ccccc2)NC(=O)[C@@H](Cc2ccccc2)NC(=O)OCc2ccccc2)C(=O)O)C1=O)NCCOCCOCCOCCOCCOCCOCCOCCOCCOCCOCCOCCNC(=O)CCN1C(=O)CC(SC[C@H](NC(=O)CNC(=O)[C@H](Cc2ccccc2)NC(=O)[C@@H](Cc2ccccc2)NC(=O)OCc2ccccc2)C(=O)O)C1=O (some centres unmarked) [[FIP]2-peg11 (no GSGSG)] | > 600 nM | > 1000 nM |  | > 1000 nM | > 700 nM | > 10000 nM | > 10000 nM |  | 
FIP-HRC450-485-peg4-chol (no GSGSG) (peptide) |  |  |  |  |  |  |  | 707 nM | 825 nM
FIP-chol (no GSGSG) (peptide) |  |  |  |  |  |  |  | > 1000 nM | > 1000 nM
FIP-peg4-chol (no GSGSG) (peptide) |  |  |  |  |  |  |  | > 700 nM | > 1000 nM
